For one test, the target named is BRD4(BD1) (Homo sapiens (Human), UniProt O60885). The experiment in a line: In vitro enzyme inhibition assay (BRD4 AlphaScreen, H4-tetraacetyl peptide). In kind it is binding. As to the method: His-tagged BRD4 was cloned, expressed and purified to homogeneity. […] BRD4 binding and inhibition was assessed by monitoring the interaction of biotinylated H4-tetraacetyl peptide (AnaSpec, H4K5/8/12/16(Ac), biotin-labeled) with the target using the AlphaScreen technology (Life Technologies). […] After 20 min incubation at room temp, Alpha streptavidin donor beads and Nickel Chelate acceptor beads were added to a final concentration of 5 μg/mL.
The ability of the compounds disclosed herein to inhibit BRD4 activity was quantified and the respective IC50 value was determined.
For orientation: Bead proximity is the source of the signal in Alpha formats.

Test [1] concerns Raji, human Burkitts lymphoma cells. The experiment in a line: Cell-MTS cellular proliferation assay, Raji. Format: cell-based. As to the method: (§1) The Cell-MTS assay is a 7-day plate-based colorimetric assay which quantifies the amount of newly generated NADH in the presence or absence of test compound. The NADH level is used for the quantification of cancer cell proliferation.
(§2) Established cancer cell lines with a variety of driving mutations were obtained from American Type Culture Collection (ATCC) and routinely passaged according to ATCC protocols. For routine assay, these cells were seeded at densities which enabled ˜90% confluence after 7 days of culture. Raji, human Burkitts lymphoma cells, (cMYC) were seeded at 15,000 cells per 96-well. HL-60, human proleukemia cells, (NRAS, p16, p53, c-Myc amplified) were seeded at 5,000 cells per 96-well. NCI-H460, human non-small cell lung cancer cells, (KRAS, PIK3CA, STLK11, p16) were seeded at 3,000 cells per 96-well 24 hr after plating, cells received an 11-point dilution of test compound with final concentration ranges from 100 μM to 2.0 nM. […] At the end of this incubation period, 80 μL of media is removed and 20 μL of CellTiter 96® AQueous Non-Radioactive Cell Proliferation Assay soln (Promega) was added. The cells were incubated until the OD490 was >0.6. IC50 values were calculated using the IDBS XLtit software package and include background subtracted OD490 values and normalization to DMSO controls. Cellular proliferation IC50 values were uploaded and archived using the Chem Biography Platform.
Background: Tetrazolium dyes change colour on reduction, which living cells bring about.

For test [2], the system named is HL-60, human proleukemia cells. The experiment in a line: Cell-MTS cellular proliferation assay, HL-60. In kind it is cell-based. As to the method:
as §1, §2

Test [3] relates to NCI-H460, human non-small cell lung cancer cells. The experiment in a line: Cell-MTS cellular proliferation assay, NCI-H460. In kind it is cell-based. How it is done: as §1, §2
Where [4] appears, read: in vitro enzyme inhibition assay, class symbols, read-out: BRD4 IC50.

Read-outs that look alike come from different tables or passages of the source.

Broadly, the IC50 is the concentration that inhibits the measured activity by half. Turning to `CCNS(=O)(=O)c1cccc(-c2cn(C)c(=O)c3ccc(F)cc23)c1` [Example 49, N-ethyl-3-(6-fluoro-2-methyl-1-oxoisoquinolin-4yl) benzenesulfonamide], the IC50 was in the range of 500 to 5000 nM against BRD4(BD1); 0.5 to 5 µM in test [1] (Homo sapiens, Raji, 168 h, read-out: Raji IC50 (μM)); 0.5 to 5 µM in test [2] (Homo sapiens, HL-60, 168 h, read-out: HL-60 IC50 (μM)).
Consider `COc1ccc(-c2cn(C)c(=O)c3cnccc23)cc1S(=O)(=O)NCc1ccccc1` [Example 54, N-benzyl-2-methoxy-5-(2-methyl-1-oxo-2,7-naphthyridin-4-yl) benzenesulfonamide], for which the IC50 in test [1] (Homo sapiens, Raji, Cell-MTS proliferation, 168 hr, read-out: Raji IC50) is over 5 µM; in test [2] (Homo sapiens, HL-60, Cell-MTS proliferation, 168 hr, read-out: HL-60 IC50), 0.5 to 5 µM; in test [3] (Homo sapiens, NCI-H460, 168 hr), over 5000 nM.
On to `Cn1cc(-c2cccc(S(N)(=O)=O)c2)c2ccc(F)cc2c1=O` [Example 61, 3-(7-fluoro-2-methyl-1-oxoisoquinolin-4-yl) benzenesulfonamide], for which the IC50 at BRD4(BD1) (in vitro enzyme inhibition assay, read-out: BRD4 IC50) is under 500 nM; in test [1] (Cell-MTS proliferation, 168 hr, read-out: Raji IC50) it was 0.5 to 5 µM; in test [2] (Cell-MTS proliferation, 168 hr, read-out: HL-60 IC50), 0.5 to 5 µM.
Take `Cn1cc(-c2cc(S(C)(=O)=O)ncc2OCC2CC2)c2ccc(F)cc2c1=O` [Example 203, 4-[5-(cyclopropylmethoxy)-2-methylsulfonylpyridin-4-yl]-7-fluoro-2-methylisoquinolin-1-one]: the IC50 was under 500 nM on BRD4(BD1) (setting [4]); under 0.5 µM in test [1] (Homo sapiens, Raji, Cell-MTS proliferation, 168 hr, class symbols, read-out: Raji IC50); under 0.5 µM in test [2] (Homo sapiens, HL-60, Cell-MTS proliferation, 168 hr, class symbols, read-out: HL-60 IC50); over 5000 nM in test [3] (Homo sapiens, NCI-H460, 168 hr, class symbols).
Regarding `Cn1cc(-c2cc(OS(N)(=O)=O)ccc2OCC2CC2)c2ccccc2c1=O` [Example 214, [4-(cyclopropylmethoxy)-3-(2-methyl-1-oxoisoquinolin-4-yl)phenyl] sulfamate], the half-inhibitory concentration (IC50) on BRD4(BD1) (setting [4]) is under 500 nM.
On to `Cc1cc(-c2cc(OS(N)(=O)=O)ccc2OCC2CC2)cn(C)c1=O` [Example 215, [4-(cyclopropylmethoxy)-3-(1,5-dimethyl-6-oxopyridin-3-yl)phenyl] sulfamate], for which the IC50 on BRD4(BD1) (setting [4]) is under 500 nM.
Turning to “N-[5-(cyclopropylmethoxy)-4-(7-fluoro-2-methyl-1-oxoisoquinolin-4-yl) pyrimidin-2-yl]methanesulfonamide [Example 158]”, the IC50 was under 500 nM on BRD4(BD1) (read-out: BRD4 IC50); under 0.5 µM in test [1] (Cell-MTS proliferation, 168 hr, class symbols, read-out: Raji IC50); under 0.5 µM in test [2] (Cell-MTS proliferation, 168 hr, class symbols, read-out: HL-60 IC50); over 5000 nM in test [3] (168 hr, class symbols).

The values above are taken from patent US10941160B2, “Bromodomain inhibitors” (CELGENE QUANTICEL RESEARCH, INC., priority 2013, dated 2021).
